What was measured:
Src kinase, p60c-src = molecular target: T1, Src kinase, p60c-src (Homo sapiens, UniProt P12931); test: protein kinase reaction on peptide chip, phosphorylation detected by cy3-Pro-Q staining; type: biochemical; conditions: pH7.5, 0.07 mM ATP, 25° C. for 30 min
T1 construct: purchased Invitrogen
From the text: FIG. 8 is a fluorescence image of a protein kinase reaction on pY-phosphopeptide chip. The experiment used Src kinase, p60c-src (Invitrogen). The chip included 23 known kinase substrates and their sequence variants, which vary in length and composition, a number of position and negative control sequences, and a few artificial peptide sequences. For each substrate peptide, at the phosphorylation position, Tyr (Y) in YEEI, for instance, three sequences are present, which are YEEI, pYEEI and AEEI. pY-containing sequences are directly synthesized which are reference sequences for the Y-containing sequences (as the substrate for kinase reactions) There are also background sites which contain no peptides. 8-22 redundancies were present. The peptide sequences shown in the image are YVPM (column 1) and the YEEIP (column 2) related sequences in double replicates. These sequences are given on right of the image. […] Kinase reaction conditions and phosphorylation detection were: 10× enzyme storage solution (0.5 mg/ml). 50 ul reaction buffer, pH7.5 (50 HEPES, 0.1 mM EDTA, and 0.01% Brij 35, 0.1 mg/ml BSA, 0.1% beta-mercaptoethanol, 0.07 mM ATP, 10 mM MgCl2), 25° C. for 30 min. The array was stained by filling the array with 200 ul cy3-Pro-Q solution (phosphate staining reagent), standing at room temperature for 20 min. The chip was then washed with 2 ml destaining buffer, pH 4.0 (50 mM […], 20% acetonitrile) as recommended by the vendor. The image was obtained from a regular microarray scanner (Axon GenPix 4000B) and shown using inverted intensities after background subtraction.
The signal intensities were analyzed using the following equation:
Relative phosphorylation efficiency: fP =(IY−IA)/(IpY−IA)
For a peptide, I is the signal intensity, IY is for Y-containing sequence which undergoes phosphorylation by kinase,IpY is for the synthetic phosphopeptide, IA is for the sequence containing Y→A substitution. By using the positive controls (pY-sequence) and negative controls (A-sequence or other non-phosphorylation amino acids) to derive relative phosphorylation efficiency, fp as fraction or percentage, the kinase reaction results were analyzed quantitatively. The method takes the advantage of addressable peptide array for reducing false positive readout and improves reliability of the data analysis.

peptide YEEI = system: T2, peptide YEEI
T2 sequence: YEEI

peptide YEEIP = system: T3, peptide YEEIP
T3 sequence: YEEIP

peptide YEE = system: T4, peptide YEE
T4 sequence: YEE

peptide YVPM = system: T5, peptide YVPM
T5 sequence: YVPM

Substance	phosphorylation by Src kinase (substrate reactivity) (Src kinase, p60c-src)	further results
Src kinase, p60c-src (Invitrogen)	–	phosphorylation on peptide chip, cy3-Pro-Q phosphate staining (peptide YEEI): YEE and YEEI are phosphorylated by the Sic kinase used; phosphorylation on peptide chip, cy3-Pro-Q phosphate staining (peptide YEEIP): YEEIP is a substrate of lower reactivity; phosphorylation on peptide chip, cy3-Pro-Q phosphate staining (peptide YEE): YEE and YEEI are phosphorylated by the Sic kinase used; phosphorylation on peptide chip, cy3-Pro-Q phosphate staining (peptide YVPM): YVPM has the lowest reactivity
YEE	phosphorylated	–
YEEIP	substrate of lower reactivity	–

Second part, led by results:

phosphorylation by Src kinase (substrate reactivity) (Src kinase, p60c-src)	Substance	further results
lowest reactivity	YVPM	–
phosphorylated	YEEI	–

Source: patent US20100210478A1, “MAKE AND USE OF SURFACE MOLECULES OF VARIED DENSITIES” (priority 2006, published 2010)
